Assay results from ChEMBL document CHEMBL4304786, “A novel class of multitarget anti-Alzheimer benzohomoadamantane‒chlorotacrine hybrids modulating cholinesterases and glutamate NMDA receptors” (Eur J Med Chem, 2019).

Assays:
[1] = biological target: Beta-secretase 1 (Homo sapiens) (UniProt P56817); experiment: Inhibition of human recombinant BACE-1 expressed in baculovirus expression system at 5 uM using panvera peptide as substrate measured after 1 hr by FRET assay relative to control
[2] = biological target: Amyloid-beta precursor protein (Homo sapiens) (UniProt P05067); experiment: Inhibition of human recombinant amyloid beta (1 to 42) aggregation expressed in Escherichia coli BL21 (DE3) at 10 uM by Thioflavin S steady state fluorescence assay relative to control
Amyloid-beta precursor protein (Homo sapiens), sequence (P05067 whole entry): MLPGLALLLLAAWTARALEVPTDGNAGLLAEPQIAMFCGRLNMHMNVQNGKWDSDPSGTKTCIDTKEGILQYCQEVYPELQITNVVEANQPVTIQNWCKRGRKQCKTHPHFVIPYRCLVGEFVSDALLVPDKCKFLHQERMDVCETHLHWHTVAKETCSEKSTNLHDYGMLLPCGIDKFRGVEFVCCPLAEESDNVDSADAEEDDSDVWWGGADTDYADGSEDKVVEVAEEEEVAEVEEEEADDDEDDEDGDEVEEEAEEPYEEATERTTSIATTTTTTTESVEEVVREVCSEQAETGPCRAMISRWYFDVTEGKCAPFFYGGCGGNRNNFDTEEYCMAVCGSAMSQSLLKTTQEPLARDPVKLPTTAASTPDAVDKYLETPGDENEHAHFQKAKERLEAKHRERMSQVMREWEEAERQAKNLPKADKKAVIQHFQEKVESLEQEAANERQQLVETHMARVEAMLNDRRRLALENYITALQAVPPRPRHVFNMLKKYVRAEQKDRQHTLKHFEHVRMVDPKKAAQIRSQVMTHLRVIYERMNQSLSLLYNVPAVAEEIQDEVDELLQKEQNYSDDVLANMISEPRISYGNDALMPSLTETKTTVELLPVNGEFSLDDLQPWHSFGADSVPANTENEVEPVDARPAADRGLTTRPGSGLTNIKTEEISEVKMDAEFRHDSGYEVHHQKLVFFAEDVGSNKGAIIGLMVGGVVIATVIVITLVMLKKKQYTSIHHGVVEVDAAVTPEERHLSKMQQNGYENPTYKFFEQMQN

[3] = biological target: T1, Acetylcholinesterase (Homo sapiens, UniProt P22303); experiment: Inhibition of human recombinant AChE expressed in HEK293 cells using acetylthiocholine iodide as substrate preincubated for 20 mins followed by substrate addition by spectrophotometry analysis
T1 sequence (P22303 whole entry): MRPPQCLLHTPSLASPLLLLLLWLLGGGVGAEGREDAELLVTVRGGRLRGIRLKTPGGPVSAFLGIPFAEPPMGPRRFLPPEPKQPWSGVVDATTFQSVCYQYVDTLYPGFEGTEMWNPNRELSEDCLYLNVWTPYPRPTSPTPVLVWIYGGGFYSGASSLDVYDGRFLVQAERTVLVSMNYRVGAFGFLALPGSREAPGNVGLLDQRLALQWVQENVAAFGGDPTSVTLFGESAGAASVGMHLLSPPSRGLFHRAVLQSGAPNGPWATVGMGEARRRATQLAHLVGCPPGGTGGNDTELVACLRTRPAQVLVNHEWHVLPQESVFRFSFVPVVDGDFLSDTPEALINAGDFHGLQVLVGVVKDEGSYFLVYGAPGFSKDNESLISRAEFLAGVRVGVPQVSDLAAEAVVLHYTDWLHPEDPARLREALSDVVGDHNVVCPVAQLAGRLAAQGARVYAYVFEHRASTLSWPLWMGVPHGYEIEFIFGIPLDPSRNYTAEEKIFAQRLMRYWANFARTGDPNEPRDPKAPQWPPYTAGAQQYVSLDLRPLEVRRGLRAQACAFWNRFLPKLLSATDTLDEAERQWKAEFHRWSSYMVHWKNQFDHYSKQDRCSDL

[4] = biological target: Microtubule-associated protein tau (Homo sapiens) (UniProt P10636); experiment: Inhibition of tau aggregation (unknown origin) expressed in Escherichia coli BL21 (DE3) at 10 uM by Thioflavin S steady state fluorescence assay relative to control
Microtubule-associated protein tau (Homo sapiens), sequence (P10636 whole entry): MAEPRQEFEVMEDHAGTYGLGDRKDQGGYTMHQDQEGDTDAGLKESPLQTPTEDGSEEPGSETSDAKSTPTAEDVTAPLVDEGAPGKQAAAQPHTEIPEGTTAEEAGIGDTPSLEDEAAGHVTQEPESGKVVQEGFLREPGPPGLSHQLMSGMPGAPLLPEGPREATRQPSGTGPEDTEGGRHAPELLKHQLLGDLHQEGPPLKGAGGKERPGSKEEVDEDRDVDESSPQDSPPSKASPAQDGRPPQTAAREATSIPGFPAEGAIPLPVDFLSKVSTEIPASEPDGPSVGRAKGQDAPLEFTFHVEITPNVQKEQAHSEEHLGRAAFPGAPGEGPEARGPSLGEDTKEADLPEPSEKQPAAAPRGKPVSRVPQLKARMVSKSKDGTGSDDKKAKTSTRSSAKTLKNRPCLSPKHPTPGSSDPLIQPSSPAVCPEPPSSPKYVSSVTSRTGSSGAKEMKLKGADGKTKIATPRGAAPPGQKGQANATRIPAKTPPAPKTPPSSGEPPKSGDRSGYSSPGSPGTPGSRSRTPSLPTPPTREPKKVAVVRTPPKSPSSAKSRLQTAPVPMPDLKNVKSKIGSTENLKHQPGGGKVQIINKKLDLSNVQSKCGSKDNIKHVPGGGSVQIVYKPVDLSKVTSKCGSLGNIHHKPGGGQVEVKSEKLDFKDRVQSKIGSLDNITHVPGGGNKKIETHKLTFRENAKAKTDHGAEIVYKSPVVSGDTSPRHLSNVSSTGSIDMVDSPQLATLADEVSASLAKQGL

[5] = biological target: T2, Cholinesterase (Homo sapiens, UniProt P06276); experiment: Potency index, ratio of IC50 for 6-cholorotacrine to compound IC50 for Inhibition of human serum BChE
T2 sequence (P06276 whole entry): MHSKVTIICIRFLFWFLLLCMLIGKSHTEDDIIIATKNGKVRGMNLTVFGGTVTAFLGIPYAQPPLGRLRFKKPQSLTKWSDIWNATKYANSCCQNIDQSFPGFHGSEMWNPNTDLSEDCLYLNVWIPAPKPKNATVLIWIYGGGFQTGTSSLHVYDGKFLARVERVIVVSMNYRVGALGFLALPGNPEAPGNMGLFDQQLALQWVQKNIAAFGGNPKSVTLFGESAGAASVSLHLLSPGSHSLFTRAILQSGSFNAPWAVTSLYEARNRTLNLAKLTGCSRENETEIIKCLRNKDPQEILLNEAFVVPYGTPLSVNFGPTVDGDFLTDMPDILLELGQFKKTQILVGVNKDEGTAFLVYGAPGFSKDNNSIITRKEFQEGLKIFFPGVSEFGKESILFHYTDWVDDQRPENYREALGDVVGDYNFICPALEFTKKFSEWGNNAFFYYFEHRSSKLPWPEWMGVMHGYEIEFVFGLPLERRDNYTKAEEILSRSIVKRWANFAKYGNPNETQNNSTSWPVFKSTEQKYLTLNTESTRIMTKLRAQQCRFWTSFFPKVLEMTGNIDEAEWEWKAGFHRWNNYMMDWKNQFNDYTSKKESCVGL

[6] = biological target: T1, Acetylcholinesterase; experiment: Potency index, ratio of IC50 for 6-cholorotacrine to compound IC50 for Inhibition of human recombinant AChE expressed in HEK293 cells; assay type: cell-based
[7] = biological target: T2, Cholinesterase; experiment: Inhibition of human serum BChE using butyrylthiocholine iodide as substrate preincubated for 20 mins followed by substrate addition by spectrophotometry analysis
[8] = biological target: Glutamate NMDA receptor; experiment: Antagonist activity at NMDA receptor in rat CGN cells assessed as […] in intracellular calcium level incubated for 30 mins in presence of Fura-2AM followed by NMDA/glycine stimulation by fluorescence spectrometer analysis; assay type: cell-based
[9] = in vitro; details: PAMPA
Description: Permeability of the compound measured after compound dilution in PBS/EtOH buffer (70:30) by PAMPA-BBB assay

[10] = biological target: T3, Glutamate NMDA receptor (Rattus norvegicus) (UniProt P35439+Q00959+Q00960+Q00961+Q62645+Q8VHN2+Q9R1M7); experiment: Potency index, ratio of memantine IC50 to compound IC50 for antagonist activity at NMDA receptor in rat CGN cells; assay type: cell-based
[11] = biological target: Glutamate NMDA receptor; GRIN1/GRIN2B (Homo sapiens, UniProt Q05586+Q13224); experiment: Inhibition of recombinant GluN1/GluN2B receptor (unknown origin) expressed in HEK293 cells by patch-clamp method; assay type: cell-based
Glutamate NMDA receptor; GRIN1/GRIN2B, sequence (Q13224 whole entry, other chains not shown): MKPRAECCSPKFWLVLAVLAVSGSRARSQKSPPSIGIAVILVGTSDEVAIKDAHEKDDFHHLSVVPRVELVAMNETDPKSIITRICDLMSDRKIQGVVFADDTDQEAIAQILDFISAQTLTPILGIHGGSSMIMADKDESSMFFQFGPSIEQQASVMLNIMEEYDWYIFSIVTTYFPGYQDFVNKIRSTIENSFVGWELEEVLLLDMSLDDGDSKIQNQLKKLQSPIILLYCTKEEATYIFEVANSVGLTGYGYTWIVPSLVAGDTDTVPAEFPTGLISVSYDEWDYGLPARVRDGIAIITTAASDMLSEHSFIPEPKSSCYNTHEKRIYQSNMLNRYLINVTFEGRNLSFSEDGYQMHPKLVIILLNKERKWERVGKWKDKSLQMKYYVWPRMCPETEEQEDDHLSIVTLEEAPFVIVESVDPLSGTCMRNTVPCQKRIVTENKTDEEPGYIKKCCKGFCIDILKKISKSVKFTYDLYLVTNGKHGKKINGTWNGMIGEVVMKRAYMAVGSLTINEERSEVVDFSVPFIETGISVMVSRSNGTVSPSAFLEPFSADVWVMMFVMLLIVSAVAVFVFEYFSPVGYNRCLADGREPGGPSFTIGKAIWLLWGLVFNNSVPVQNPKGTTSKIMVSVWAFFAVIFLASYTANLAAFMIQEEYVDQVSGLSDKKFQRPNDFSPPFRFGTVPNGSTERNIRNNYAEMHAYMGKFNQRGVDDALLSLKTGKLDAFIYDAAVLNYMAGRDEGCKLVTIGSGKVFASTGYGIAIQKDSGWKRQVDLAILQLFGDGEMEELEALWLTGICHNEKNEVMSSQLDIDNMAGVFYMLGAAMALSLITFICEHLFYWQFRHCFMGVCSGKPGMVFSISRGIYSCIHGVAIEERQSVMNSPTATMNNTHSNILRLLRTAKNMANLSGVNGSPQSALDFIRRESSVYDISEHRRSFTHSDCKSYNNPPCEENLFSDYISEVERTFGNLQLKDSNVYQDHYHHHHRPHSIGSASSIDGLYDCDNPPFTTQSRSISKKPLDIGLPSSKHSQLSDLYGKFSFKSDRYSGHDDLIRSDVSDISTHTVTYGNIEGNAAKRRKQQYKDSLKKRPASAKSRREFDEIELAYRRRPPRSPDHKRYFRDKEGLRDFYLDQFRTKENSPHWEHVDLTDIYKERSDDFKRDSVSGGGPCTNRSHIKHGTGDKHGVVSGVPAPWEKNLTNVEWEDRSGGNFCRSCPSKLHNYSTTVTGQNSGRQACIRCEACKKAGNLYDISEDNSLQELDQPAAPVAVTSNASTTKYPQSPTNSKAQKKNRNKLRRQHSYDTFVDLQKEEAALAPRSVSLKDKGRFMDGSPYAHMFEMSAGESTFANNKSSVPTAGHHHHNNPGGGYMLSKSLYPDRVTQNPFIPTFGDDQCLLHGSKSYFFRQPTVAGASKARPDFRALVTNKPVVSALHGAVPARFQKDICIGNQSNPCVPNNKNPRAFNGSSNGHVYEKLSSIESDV

[12] = biological target: T3, Glutamate NMDA receptor (Rattus norvegicus); experiment: Potency index, ratio of benzoho-moadamantanamine IC50 to compound IC50 for antagonist activity at NMDA receptor in rat CGN cells; assay type: cell-based

Beta-secretase 1 (Homo sapiens), sequence (P56817 whole entry): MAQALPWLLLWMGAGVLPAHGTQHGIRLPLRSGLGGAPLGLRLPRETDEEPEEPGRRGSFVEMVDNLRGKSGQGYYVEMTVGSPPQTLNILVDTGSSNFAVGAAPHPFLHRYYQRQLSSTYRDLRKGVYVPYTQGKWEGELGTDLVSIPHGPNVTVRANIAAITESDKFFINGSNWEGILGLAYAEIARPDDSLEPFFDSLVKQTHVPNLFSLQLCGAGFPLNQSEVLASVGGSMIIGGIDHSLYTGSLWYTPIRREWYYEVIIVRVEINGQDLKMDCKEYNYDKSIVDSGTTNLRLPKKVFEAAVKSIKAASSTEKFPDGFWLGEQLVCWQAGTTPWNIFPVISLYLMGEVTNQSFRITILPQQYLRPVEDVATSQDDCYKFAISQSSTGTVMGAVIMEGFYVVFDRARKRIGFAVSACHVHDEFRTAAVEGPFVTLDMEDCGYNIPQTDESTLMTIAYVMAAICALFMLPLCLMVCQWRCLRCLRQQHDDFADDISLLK

Structure (SMILES)	inhibition [1] [%]	inhibition [2] [%]	IC50 [3] [nM]	inhibition [4] [%]	Ratio IC50 [5]	Ratio IC50 [6]	IC50 [7] [nM]	IC50 [8] [µM]	Papp [9] [×10⁻⁶ cm/s]	Ratio IC50 [10]	Ki [11] [nM]	Ratio IC50 [12]
NC12CC3CC(F)(CC(C1)c1cc(NC(=O)CCCCNc4c5c(nc6cc(Cl)ccc46)CCCC5)ccc13)C2 (configuration not stated)	18	< 5	2.5	22.9	24	44	20	3.4	3.1	–	–	–
CC12CC3CC(C)(C1)CC(N)(C3)C2	18	–	–	–	–	–	–	–	–	–	–	–
Nc1c2c(nc3cc(Cl)ccc13)CCCC2	18	–	–	< 5	–	–	–	–	20	–	–	–
NC12CC3CC(F)(CC(C1)c1ccccc13)C2	18	–	–	–	–	–	–	1.9	–	1.7	–	–
COc1ccc2nc3c(c(NCCCCCNC(=S)NC45CC6CC(CC(C6)C4)C5)c2c1)CCCC3	–	–	–	–	–	–	–	–	–	–	1800	–
O=C(CCCNc1c2c(nc3cc(Cl)ccc13)CCCC2)NC12CC3CC(F)(CC(C1)c1ccccc13)C2	18	< 5	1.4	10.2	–	6 to 44	2300	7	9.8	–	–	–
NC12CC3CC(F)(CC(C1)c1cc(NC(=O)CCCNc4c5c(nc6cc(Cl)ccc46)CCCC5)ccc13)C2 (configuration not stated)	18	< 5	0.3	6.9	–	6 to 44	500	1.2	2.7	1.7	–	2
FC12CC3CC(NCCCCNc4c5c(nc6cc(Cl)ccc46)CCCC5)(CC(C1)c1ccccc13)C2	18	8.4	2	22	–	6 to 44	1100	3.3	6.3	–	–	–
O=C(CCCCNc1c2c(nc3cc(Cl)ccc13)CCCC2)NC12CC3CC(F)(CC(C1)c1ccccc13)C2	18	9	1.3	12.6	–	6 to 44	2400	8.3	9	–	–	–
FC12CC3CC(NCCCCCNc4c5c(nc6cc(Cl)ccc46)CCCC5)(CC(C1)c1ccccc13)C2	18	12.3	1.4	20.7	2	6 to 44	200	0.9	6.5	1.7	–	2
